Common to all, as to format: cell-based
Assay [1] concerns Mannheimia haemolytica MH 6357 (M7/2, reference strain, cattle infection strain). Briefly: MIC, broth-microdilution (CLSI VET01-A4), strain MH 6357. The following applies: Mannheimia haemolytica strain MH 6357, broth-microdilution; unit assumed. The essentials:
(§1)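 MIC recorded as the lowest drug level giving no growth visible to the naked eye, from two-fold serial dilutions. Interpretation followed VET01-S3.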
In general terms: Broth dilution looks for growth in wells or tubes with falling amounts of substance.

The test system of assay [2] is Mannheimia haemolytica MH 6374 (ATCC 33396, reference strain). The experiment in a line: MIC, broth-microdilution (CLSI VET01-A4), strain MH 6374. Conditions: Mannheimia haemolytica strain MH 6374, broth-microdilution; unit assumed. The essentials: as §1
The test system of assay [3] is Mannheimia haemolytica MH 10720 (154, BRD field isolate). Briefly: MIC, broth-microdilution (CLSI VET01-A4), strain MH 10720. The following applies: Mannheimia haemolytica strain MH 10720, broth-microdilution; unit assumed. The essentials:
as §1

In assay [4] the test system is Mannheimia haemolytica MH 12587 (1071, BRD field isolate, macrolide-resistance: erm+, E+). The experiment in a line: MIC, broth-microdilution (CLSI VET01-A4), strain MH 12587. The following applies: Mannheimia haemolytica strain MH 12587, broth-microdilution; unit assumed. The essentials:
as §1

Assay [5] concerns Mannheimia haemolytica MH 13065 (XB0446-6003.9, BRD field isolate). Briefly: MIC, broth-microdilution (CLSI VET01-A4), strain MH 13065. The following applies: Mannheimia haemolytica strain MH 13065, broth-microdilution; unit assumed. The essentials:
as §1

Assay [6] concerns Mannheimia haemolytica MH 13093 (XB0472-6014.1, BRD field isolate). The experiment in a line: MIC, broth-microdilution (CLSI VET01-A4), strain MH 13093. Conditions: Mannheimia haemolytica strain MH 13093, broth-microdilution; unit assumed. The essentials:
as §1

The test system of assay [7] is Pasteurella multocida PM 6267 (P 2225 (L386), reference strain, mouse infection strain). The experiment in a line: MIC, broth-microdilution (CLSI VET01-A4), strain PM 6267. The following applies: Pasteurella multocida strain PM 6267, broth-microdilution; unit assumed. The essentials: as §1
The subject of assay [8] is Pasteurella multocida PM 6391 (ATCC 43137, reference strain). The experiment in a line: MIC, broth-microdilution (CLSI VET01-A4), strain PM 6391. The following applies: Pasteurella multocida strain PM 6391, broth-microdilution; unit assumed. The essentials:
as §1

Assay [9] relates to Pasteurella multocida PM 10775 (080130003051, BRD field isolate). The experiment in a line: MIC, broth-microdilution (CLSI VET01-A4), strain PM 10775. Conditions: Pasteurella multocida strain PM 10775, broth-microdilution; unit assumed. The essentials:
as §1

In assay [10] the test system is Pasteurella multocida PM 12080 (IV102277-0093, BRD field isolate). Briefly: MIC, broth-microdilution (CLSI VET01-A4), strain PM 12080. Conditions: Pasteurella multocida strain PM 12080, broth-microdilution; unit assumed. The essentials:
as §1

≈ marks a conversion by molar mass, not a printed value. Bounds are passed on as bounds.

As for `C=CCNCc1ccc(C#Cc2ccc(C(=O)N[C@H](C(=O)NO)C(C)(C)S(C)(=O)=O)cc2)cn1` [Compound 370], in [1], the MIC MH 6357 came to 0.8 µg/mL (≈ 1.65 µM). The compound also returned an MIC MH 6374 in assay [2] of 1.6 µg/mL (≈ 3.3 µM). This compound had an MIC MH 10720 in assay [3] of 0.8 µg/mL (≈ 1.65 µM). The compound also gave an MIC MH 12587 in assay [4] of 3.1 µg/mL (≈ 6.4 µM). Also, in assay [5], the MIC MH 13065 stood at 1.6 µg/mL (≈ 3.3 µM). For the same compound, the MIC MH 13093 in assay [6] came out at 3.1 µg/mL (≈ 6.4 µM). Moreover, the MIC PM 6267 in assay [7] was determined as 0.2 µg/mL (≈ 0.413 µM). Further, the MIC PM 6391 in [8] was found to be 0.4 µg/mL (≈ 0.825 µM). The compound further had an MIC PM 10775 in [9] of at most 0.1 µg/mL. This compound displayed an MIC PM 12080 in [10] of 0.2 µg/mL (≈ 0.413 µM).

With `CC(C)([C@H](NC(=O)c1ccc(C#Cc2ccc(CNCc3ccncc3)nc2)cc1)C(=O)NO)S(C)(=O)=O` [Compound 371], in [1], the MIC MH 6357 came out at 1.6 µg/mL (≈ 2.99 µM). The MIC MH 6374 in assay [2] was 1.6 µg/mL (≈ 2.99 µM). This compound also gave an MIC MH 10720 in assay [3] of 0.8 µg/mL (≈ 1.49 µM). In assay [4], this compound showed an MIC MH 12587 of 3.1 µg/mL (≈ 5.79 µM). This compound showed an MIC MH 13065 in [5] of 1.6 µg/mL (≈ 2.99 µM). In assay [6], this compound gave an MIC MH 13093 of 3.1 µg/mL (≈ 5.79 µM). The compound further returned an MIC PM 6267 in assay [7] of 0.2 µg/mL (≈ 0.373 µM). Further, the MIC PM 6391 in [8] worked out at 0.2 µg/mL (≈ 0.373 µM). Besides, in assay [9], the MIC PM 10775 is at most 0.1 µg/mL. Besides, in assay [10], the MIC PM 12080 came to 0.2 µg/mL (≈ 0.373 µM).

With `CC(C)([C@H](NC(=O)c1ccc(C#Cc2ccc(CNCC#N)nc2)cc1)C(=O)NO)S(C)(=O)=O` [Compound 372], in assay [1], the MIC MH 6357 was 6.3 µg/mL (≈ 13 µM). In [2], the MIC MH 6374 was 12.5 µg/mL (≈ 25.9 µM). The same compound showed an MIC MH 10720 in assay [3] of 3.1 µg/mL (≈ 6.41 µM). Besides, in assay [4], the MIC MH 12587 worked out at 25 µg/mL (≈ 51.7 µM). The compound further gave an MIC MH 13065 in [5] of 12.5 µg/mL (≈ 25.9 µM). The MIC MH 13093 in [6] turned out to be 25 µg/mL (≈ 51.7 µM). In assay [7], this compound gave an MIC PM 6267 of 1.6 µg/mL (≈ 3.31 µM). This compound also displayed an MIC PM 6391 in [8] of 1.6 µg/mL (≈ 3.31 µM). Also, in [9], the MIC PM 10775 was determined as 0.4 µg/mL (≈ 0.827 µM). The compound also yielded an MIC PM 12080 in [10] of 0.8 µg/mL (≈ 1.65 µM).

In turn, `CC(C)([C@H](NC(=O)c1ccc(C#Cc2ccc(CNCc3cccnc3)nc2)cc1)C(=O)NO)S(C)(=O)=O` [Compound 373] had an MIC MH 6357 in [1] of 1.6 µg/mL (≈ 2.99 µM). The same compound gave an MIC MH 6374 in assay [2] of 3.1 µg/mL (≈ 5.79 µM). Further, the MIC MH 10720 in [3] amounted to 0.4 µg/mL (≈ 0.747 µM). In addition, the MIC MH 12587 in assay [4] amounted to 6.3 µg/mL (≈ 11.8 µM). Also, in assay [5], the MIC MH 13065 is 3.1 µg/mL (≈ 5.79 µM). In assay [6], this compound displayed an MIC MH 13093 of 3.1 µg/mL (≈ 5.79 µM). In assay [7], this compound came in with an MIC PM 6267 of 0.4 µg/mL (≈ 0.747 µM). Further, the MIC PM 6391 in assay [8] was determined as 0.8 µg/mL (≈ 1.49 µM). The compound further displayed an MIC PM 10775 in [9] of at most 0.1 µg/mL. The same compound registered an MIC PM 12080 in assay [10] of 0.4 µg/mL (≈ 0.747 µM).

Turning to `CC(C)([C@H](NC(=O)c1ccc(C#Cc2ccc(CNCc3nccs3)nc2)cc1)C(=O)NO)S(C)(=O)=O` [Compound 374], the MIC MH 6357 in assay [1] is 0.8 µg/mL (≈ 1.48 µM). This compound also showed an MIC MH 6374 in assay [2] of 0.8 µg/mL (≈ 1.48 µM). In assay [3], this compound registered an MIC MH 10720 of 0.4 µg/mL (≈ 0.738 µM). Further, the MIC MH 12587 in assay [4] was determined as 3.1 µg/mL (≈ 5.72 µM). In [5], this compound had an MIC MH 13065 of 1.6 µg/mL (≈ 2.95 µM). In addition, in [6], the MIC MH 13093 was determined as 3.1 µg/mL (≈ 5.72 µM). The compound also had an MIC PM 6267 in assay [7] of 0.2 µg/mL (≈ 0.369 µM). In [8], this compound yielded an MIC PM 6391 of 0.2 µg/mL (≈ 0.369 µM). The compound also displayed an MIC PM 10775 in assay [9] of at most 0.1 µg/mL. The compound further yielded an MIC PM 12080 in assay [10] of at most 0.1 µg/mL.

`O=C(N[C@@H](CO)C(=O)NO)c1ccc(C#Cc2ccc([N+](=O)[O-])cc2)cc1` [Compound 375, N-[(1S)-2-(hydroxyamino)-1-(hydroxymethyl)-2-oxo-ethyl]-4-[2-(4-nitrophenyl)ethynyl]benzamide] displayed an MIC MH 6357 in assay [1] of 1.6 µg/mL (≈ 4.33 µM). For the same compound, the MIC MH 6374 in assay [2] came out at 3.1 µg/mL (≈ 8.39 µM). The compound also displayed an MIC MH 10720 in assay [3] of 0.8 µg/mL (≈ 2.17 µM). The compound further had an MIC MH 12587 in assay [4] of 6.3 µg/mL (≈ 17.1 µM). The MIC MH 13065 in [5] was determined as 3.1 µg/mL (≈ 8.39 µM). Besides, the MIC MH 13093 in assay [6] was 6.3 µg/mL (≈ 17.1 µM). This compound also had an MIC PM 6267 in assay [7] of 0.8 µg/mL (≈ 2.17 µM). The MIC PM 6391 in assay [8] is 1.6 µg/mL (≈ 4.33 µM). Moreover, the MIC PM 10775 in assay [9] is at most 0.1 µg/mL. The MIC PM 12080 in [10] came out at 3.1 µg/mL (≈ 8.39 µM).

As to `Nc1ccc(C#Cc2ccc(C(=O)N[C@@H](CO)C(=O)NO)cc2)cc1` [Compound 376, 4-[2-(4-aminophenyl)ethynyl]-N-[(1S)-2-(hydroxyamino)-1-(hydroxymethyl)-2-oxo-ethyl]benzamide], in [1], the MIC MH 6357 was 1.6 µg/mL (≈ 4.71 µM). For the same compound, the MIC MH 6374 in assay [2] is 3.1 µg/mL (≈ 9.14 µM). In [3], this compound had an MIC MH 10720 of 0.8 µg/mL (≈ 2.36 µM). In addition, the MIC MH 12587 in [4] was 6.3 µg/mL (≈ 18.6 µM). Moreover, the MIC MH 13065 in assay [5] amounted to 3.1 µg/mL (≈ 9.14 µM). Further, the MIC MH 13093 in [6] stood at 6.3 µg/mL (≈ 18.6 µM). In addition, in assay [7], the MIC PM 6267 stood at 0.8 µg/mL (≈ 2.36 µM). The same compound came in with an MIC PM 6391 in assay [8] of 1.6 µg/mL (≈ 4.71 µM). The compound further returned an MIC PM 10775 in [9] of at most 0.1 µg/mL. This compound displayed an MIC PM 12080 in assay [10] of 1.6 µg/mL (≈ 4.71 µM).

`CON=C(C)[C@H](NC(=O)c1ccc(C#Cc2ccc(CNC3CC3)cc2)cc1)C(=O)NO` [Compound 378]: the MIC MH 6357 in [1] stood at 0.8 µg/mL (≈ 1.84 µM). Besides, in assay [2], the MIC MH 6374 is 0.8 µg/mL (≈ 1.84 µM). In assay [3], this compound showed an MIC MH 10720 of 0.4 µg/mL (≈ 0.921 µM). In addition, the MIC MH 12587 in assay [4] is 0.2 µg/mL (≈ 0.46 µM). Also, in assay [5], the MIC MH 13065 came to 0.8 µg/mL (≈ 1.84 µM). The MIC MH 13093 in [6] was found to be 0.8 µg/mL (≈ 1.84 µM). In assay [7], this compound registered an MIC PM 6267 of 1.6 µg/mL (≈ 3.68 µM). Also, the MIC PM 6391 in assay [8] was at most 0.1 µg/mL. In assay [9], this compound came in with an MIC PM 10775 of 0.4 µg/mL (≈ 0.921 µM). The same compound yielded an MIC PM 12080 in assay [10] of 0.2 µg/mL (≈ 0.46 µM).
